From patent US8889682B2, “Inhibitors of bruton'S tyrosine kinase” (Hoffmann-La Roche Inc., priority 2011, dated 2014) come the findings set out here.

As a reminder, the pIC50 is the IC50 on a negative log10 scale, so that one unit is a factor of ten.

In the test the test system is B cell receptor-mediated activation of B cells in human blood (CD69 expression). Kind of test: Inhibition of B cell activation in whole blood measured by CD69 expression. It is filed as cell-based. Conditions: anti-IgM stimulation, 20 hours, CD69-positive cells that are also CD20-positive, read-out: HWB IC50. As to the method: Inhibition of B Cell Activation in Whole Blood Measured by CD69 Expression
A procedure to test the ability of Btk inhibitors to suppress B cell receptor-mediated activation of B cells in human blood is as follows:
Human whole blood (HWB) is obtained from healthy volunteers, with the following restrictions: 24 hr drug-free, non-smokers. Blood is collected by venipuncture into Vacutainer tubes anticoagulated with sodium heparin. Test compounds are diluted to ten times the desired starting drug concentration in PBS […], followed by three-fold serial dilutions in 10% DMSO in PBS to produce a nine point dose-response curve. […] HWB (100 μl) is added to each well, and after mixing the plates are incubated at 37 C, 5% CO2, 100% humidity for 30 minutes.
Included are induced control, unstained and single stains for compensation adjustments and initial voltage settings. […] Supernatants are removed via suction and the remaining pellets are lysed again with another 1 ml of 1× Pharmingen Lyse Buffer, and plates are spun down as before. Supernatants are aspirated and remaining pellets are washed in FACs buffer (PBS+1% FBS). […] Samples are transferred to a 96 well plate suitable to be run on the HTS 96 well system on the BD LSR II flow cytometer.
Using appropriate excitation and emission wavelengths for the fluorophores used, data are acquired and percent positive cell values are obtained using Cell Quest Software. Results are initially analyzed by FACS analysis software (Flow Jo).

Each structure is given as a SMILES string. pIC50: −log10 of the molar value.

Take `CN1CCn2nc(Nc3cc(-c4ccnc(-n5ccc6cc(C(C)(C)C)cc(F)c6c5=O)c4CO)nn(C)c3=O)cc2C1` [Compound I-23, 6-tert-Butyl-8-fluoro-2-{3-hydroxymethyl-4-[1-methyl-5-(5-methyl-4,5,6,7-tetrahydro-pyrazolo[1,5-a]pyrazin-2-ylamino)-6-oxo-1,6-dihydro-pyridazin-3-yl]-pyridin-2-yl}-2H-isoquinolin-1-one]: the pIC50 is 7.82. The same measure for `Cn1nc(-c2ccnc(-n3ncc4cc(C(C)(C)C)ccc4c3=O)c2CO)cc(Nc2ccc(OC(C)(C)CN3CCC3)cn2)c1=O` [Compound I-16, 2-(4-{5-[5-(2-Azetidin-1-yl-1,1-dimethyl-ethoxy)-pyridin-2-ylamino]-1-methyl-6-oxo-1,6-dihydro-pyridazin-3-yl}-3-hydroxymethyl-pyridin-2-yl)-6-tert-butyl-2H-phthalazin-1-one]: 7.55; for `CCN1CCn2nc(Nc3cc(-c4ccnc(-n5ccc6cc(C(C)(C)C)cc(F)c6c5=O)c4CO)nn(C)c3=O)cc2C1` [Compound I-25, 6-tert-Butyl-2-{4-[5-(5-ethyl-4,5,6,7-tetrahydro-pyrazolo[1,5-a]pyrazin-2-ylamino)-1-methyl-6-oxo-1,6-dihydro-pyridazin-3-yl]-3-hydroxymethyl-pyridin-2-yl}-8-fluoro-2H-isoquinolin-1-one]: 8.52.

In the case of `Cn1cc(-c2nccc(-n3ncc4cc(C(C)(C)C)cc(F)c4c3=O)c2CO)cc(Nc2ccc(S(C)(=O)=O)cn2)c1=O` [Compound I-29, 4-(6-tert-Butyl-8-fluoro-1-oxo-1H-phthalazin-2-yl)-3-hydroxymethyl-5′-(5-methanesulfonyl-pyridin-2-ylamino)-1′-methyl-1′H-[2,3′]bipyridinyl-6′-one], the pIC50 is 6.79. `CN(C)C(=O)c1ccc(Nc2cc(-c3ccnc(-n4ccc5cc(C6CC6)cc(F)c5c4=O)c3CO)nn(C)c2=O)nc1` [Compound I-6, 6-{6-[2-(6-Cyclopropyl-8-fluoro-1-oxo-1H-isoquinolin-2-yl)-3-hydroxymethyl-pyridin-4-yl]-2-methyl-3-oxo-2,3-dihydro-pyridazin-4-ylamino}-N,N-dimethyl-nicotinamide]: the pIC50 was 7.11. Take `Cn1nc(-c2ccnc(-n3ncc4cc(C(C)(C)C)cc(F)c4c3=O)c2CO)cc(Nc2ccc(OC(C)(C)CN3CCC3)cn2)c1=O` [Compound I-15, 2-(4-{5-[5-(2-Azetidin-1-yl-1,1-dimethyl-ethoxy)-pyridin-2-ylamino]-1-methyl-6-oxo-1,6-dihydro-pyridazin-3-yl}-3-hydroxymethyl-pyridin-2-yl)-6-tert-butyl-8-fluoro-2H-phthalazin-1-one]: the pIC50 is 8.52.

For the compound `Cn1cc(-c2ccnc(-n3ncc4cc(C(C)(C)C)cc(F)c4c3=O)c2CO)cc(Nc2ccc(C(=O)N3CCOCC3)cn2)c1=O` [Compound I-8, 2′-(6-tert-Butyl-8-fluoro-1-oxo-1H-phthalazin-2-yl)-3′-hydroxymethyl-1-methyl-5-[5-(morpholine-4-carbonyl)-pyridin-2-ylamino]-1H-[3,4′]bipyridinyl-6-one], the pIC50 is 7.57.

Regarding `Cn1nc(-c2ccnc(-n3ncc4cc(C(C)(C)C)ccc4c3=O)c2CO)cc(Nc2ccc(C(=O)N3CCOCC3)cn2)c1=O` [Compound I-7, 6-tert-Butyl-2-(3-hydroxymethyl-4-{1-methyl-5-[5-(morpholine-4-carbonyl)-pyridin-2-ylamino]-6-oxo-1,6-dihydro-pyridazin-3-yl}-pyridin-2-yl)-2H-phthalazin-1-one], the pIC50 is 7.00.

For the compound `Cn1nc(-c2ccnc(-n3ncc4cc(C(C)(C)C)cc(F)c4c3=O)c2CO)cc(Nc2ccc(OC(C)(C)CN3CC(F)(F)C3)cn2)c1=O` [Compound I-30, 6-tert-Butyl-2-[4-(5-{5-[2-(3,3-difluoro-azetidin-1-yl)-1,1-dimethyl-ethoxy]-pyridin-2-ylamino}-1-methyl-6-oxo-1,6-dihydro-pyridazin-3-yl)-3-hydroxymethyl-pyridin-2-yl]-8-fluoro-2H-phthalazin-1-one], the negative logarithm of the IC50 (pIC50) was 7.26. Turning to `Cn1nc(-c2ccnc(-n3ccc4cc(C(C)(C)C)cc(F)c4c3=O)c2CO)cc(Nc2cc3n(n2)CCN(C2COC2)C3)c1=O` [Compound I-24, 6-tert-Butyl-8-fluoro-2-{3-hydroxymethyl-4-[1-methyl-5-(5-oxetan-3-yl-4,5,6,7-tetrahydro-pyrazolo[1,5-a]pyrazin-2-ylamino)-6-oxo-1,6-dihydro-pyridazin-3-yl]-pyridin-2-yl}-2H-isoquinolin-1-one], the pIC50 was 8.22. Consider `CN1CCC(c2ccc(Nc3cc(-c4ccnc(-n5ncc6cc(C(C)(C)C)cc(F)c6c5=O)c4CO)nn(C)c3=O)nc2)CC1` [Compound I-1, 6-tert-Butyl-8-fluoro-2-{3-hydroxymethyl-4-[1-methyl-5-(1′-methyl-1′,2′,3′,4′,5′,6′-hexahydro-[3,4′]bipyridinyl-6-ylamino)-6-oxo-1,6-dihydro-pyridazin-3-yl]-pyridin-2-yl}-2H-phthalazin-1-one], for which the pIC50 is 7.96. `CN1CCn2nc(Nc3cc(-c4ccnc(-n5ncc6cc(C(C)(C)C)ccc6c5=O)c4CO)nn(C)c3=O)cc2C1` [Compound I-19, 6-tert-Butyl-2-{3-hydroxymethyl-4-[1-methyl-5-(5-methyl-4,5,6,7-tetrahydro-pyrazolo[1,5-a]pyrazin-2-ylamino)-6-oxo-1,6-dihydro-pyridazin-3-yl]-pyridin-2-yl}-2H-phthalazin-1-one]: the negative-log IC50 (pIC50) is 7.62.

On to `Cn1nc(-c2ccnc(-n3ncc4cc(C(C)(C)C)ccc4c3=O)c2CO)cc(Nc2ccc(OC(C)(C)CN3CC(F)(F)C3)cn2)c1=O` [Compound I-33, 6-tert-Butyl-2-[4-(5-{5-[2-(3,3-difluoro-azetidin-1-yl)-1,1-dimethyl-ethoxy]-pyridin-2-ylamino}-1-methyl-6-oxo-1,6-dihydro-pyridazin-3-yl)-3-hydroxymethyl-pyridin-2-yl]-2H-phthalazin-1-one], for which the negative logarithm of the IC50 (pIC50) is 6.67. For the compound `CN1CCn2nc(Nc3cc(-c4ccnc(-n5ccc6cc(C7CC7)cc(F)c6c5=O)c4CO)nn(C)c3=O)cc2C1` [Compound I-20, 6-Cyclopropyl-8-fluoro-2-{3-hydroxymethyl-4-[1-methyl-5-(5-methyl-4,5,6,7-tetrahydro-pyrazolo[1,5-a]pyrazin-2-ylamino)-6-oxo-1,6-dihydro-pyridazin-3-yl]-pyridin-2-yl}-2H-isoquinolin-1-one], the pIC50 is 7.13.

`Cn1nc(-c2ccnc(-n3ncc4cc(C(C)(C)C)cc(F)c4c3=O)c2CO)cc(Nc2cc3n(n2)CCN(C2COC2)C3)c1=O` [Compound I-21, 6-tert-Butyl-8-fluoro-2-{3-hydroxymethyl-4-[1-methyl-5-(5-oxetan-3-yl-4,5,6,7-tetrahydro-pyrazolo[1,5-a]pyrazin-2-ylamino)-6-oxo-1,6-dihydro-pyridazin-3-yl]-pyridin-2-yl}-2H-phthalazin-1-one]: the pIC50 was 7.74.

`CN1CCn2nc(Nc3cc(-c4ccnc(-n5ccc6cc(C(C)(C)C#N)cc(F)c6c5=O)c4CO)nn(C)c3=O)cc2C1` [Compound I-31, 2-(8-Fluoro-2-{3-hydroxymethyl-4-[1-methyl-5-(5-methyl-4,5,6,7-tetrahydro-pyrazolo[1,5-a]pyrazin-2-ylamino)-6-oxo-1,6-dihydro-pyridazin-3-yl]-pyridin-2-yl}-1-oxo-1,2-dihydro-isoquinolin-6-yl)-2-methyl-propionitrile]: the negative logarithm of the IC50 (pIC50) is 7.44. The same measure for `Cn1nc(-c2ccnc(-n3ncc4cc(C(C)(C)C)cc(F)c4c3=O)c2CO)cc(Nc2cc3n(n2)CC[N+](C)([O-])C3)c1=O` (centres unmarked) [Compound I-34, 6-tert-Butyl-8-fluoro-2-{3-hydroxymethyl-4-[1-methyl-5-(5-methyl-5-oxy-4,5,6,7-tetrahydro-pyrazolo[1,5-a]pyrazin-2-ylamino)-6-oxo-1,6-dihydro-pyridazin-3-yl]-pyridin-2-yl}-2H-phthalazin-1-one]: 5.46.

Consider `Cn1cc(-c2ccnc(-n3ccc4cc(C5CC5)cc(F)c4c3=O)c2CO)cc(Nc2ccc(C(=O)N3CCOCC3)cn2)c1=O` [Compound I-11, 2′-(6-Cyclopropyl-8-fluoro-1-oxo-1H-isoquinolin-2-yl)-3′-hydroxymethyl-1-methyl-5-[5-(morpholine-4-carbonyl)-pyridin-2-ylamino]-1H-[3,4′]bipyridinyl-6-one], for which the negative-log IC50 (pIC50) is 7.82.

For `CCN1CCn2nc(Nc3cc(-c4ccnc(-n5ncc6cc(C(C)(C)C)cc(F)c6c5=O)c4CO)nn(C)c3=O)cc2C1` [Compound I-22, 6-tert-Butyl-2-{4-[5-(5-ethyl-4,5,6,7-tetrahydro-pyrazolo[1,5-a]pyrazin-2-ylamino)-1-methyl-6-oxo-1,6-dihydro-pyridazin-3-yl]-3-hydroxymethyl-pyridin-2-yl}-8-fluoro-2H-phthalazin-1-one], the pIC50 was 7.36. For `Cn1nc(-c2ccnc(-n3ncc4cc(C(C)(C)C)cc(F)c4c3=O)c2CO)cc(Nc2ccc(C(=O)N3CCOCC3)cn2)c1=O` [Compound I-3, 6-tert-Butyl-8-fluoro-2-(3-hydroxymethyl-4-{1-methyl-5-[5-(morpholine-4-carbonyl)-pyridin-2-ylamino]-6-oxo-1,6-dihydro-pyridazin-3-yl}-pyridin-2-yl)-2H-phthalazin-1-one], the negative logarithm of the IC50 (pIC50) is 7.85.
